Source: article PMC7049619 (Acta Pharmaceutica Sinica. B, 2019)
“And” between values parts separate entries of the source, which are not always exact repeats. Equal values may be shown once.

Key:
[1] = Cytotoxicity in C8166 cells by MTT method; settings: human
HIV-1IIIB = assay: Anti-HIV-1 activity; format: cell-based; settings: for SI (selectivity index): ratio CC50/EC50, C8166 cells, Table 1; for times more potent than NVP: C8166, Table 1 EC50
HIV-1TC-1 = format: cell-based; settings: Human immunodeficiency virus 1, PBMC, HIV-1TC-1, PBMC; Table 2
HIV-1Ba-L = assay: Anti-HIV-1Ba-L activity, luciferase gene expression assay in TZM-bl cells; format: cell-based; settings: Human immunodeficiency virus 1, TZM-b1
HIV-1A17 (K103N + Y181C) = assay: Anti-HIV-1 activity against resistant strain HIV-1A17; format: cell-based; settings: Human immunodeficiency virus 1, C8166
HIV-1RF/V82F/184V = assay: Anti-HIV-1 activity against resistant strain HIV-1RF/V82F/184V in C8166 cells; format: cell-based; settings: Human immunodeficiency virus 1, C8166
HIV-1_74V = assay: Anti-HIV-1 activity against resistant strain HIV-1_74V in C8166 cells; format: cell-based; settings: Human immunodeficiency virus 1, C8166
HIV-1WAN = format: cell-based; settings: Human immunodeficiency virus 1, PBMC
Cytotoxicity in PBMC = format: cell-based; settings: human, PBMC (peripheral blood mononuclear cells)
[2] = Cytotoxicity in TZM-bl cells; format: cell-based; settings: human
[3] = tested on: K103N/Y181C double mutant HIV-1 strain; settings: cited from earlier work
[4] = tested on: HIV-1 laboratory adapted strains and primary isolated strains; format: cell-based; settings: HIV-1IIIB, HIV-1Ba-L and HIV-1TC-1; Table 2 EC50
in vivo = settings: male, Sprague-Dawley, rat, plasma
recombinant HIV-1 RT = recombinant HIV-1 RT (Human immunodeficiency virus type 1 group M subtype B, UniProt P04585); assay: Enzymatic recombinant HIV-1 RT activity assay; format: biochemical

Row | Structure (SMILES) | CC50 at 3 days [1] [nM] | SI (selectivity index) (HIV-1IIIB) | EC50 (HIV-1TC-1) [nM] | EC50 (HIV-1Ba-L) [nM] | EC50 (HIV-1A17 (K103N + Y181C)) [nM] | EC50 (HIV-1RF/V82F/184V) [nM] | EC50 (HIV-1_74V) [nM] | EC50 (HIV-1WAN) [nM] | CC50 (Cytotoxicity in PBMC) [nM] | CC50 at 3 days [2] [nM] | other results
1 | CCc1c(CC2CCCCC2)nc(SCc2cc(-c3cccc(C)c3)[nH]n2)[nH]c1=O [I-02, 6-(Cyclohexylmethyl)-5-ethyl-2-(((5-(m-tolyl)-1H-pyrazol-3-yl)methyl)thio)pyrimidin-4(3H)-one] | 82800 ± 2200 | 1120 |  |  |  |  |  |  |  |  | 
2 | Cc1ccnc2c1NC(=O)c1cccnc1N2C1CC1 [NVP, nevirapine, reference compound] |  |  | 199 ± 48.7 | 166 ± 46.5 | 20200 ± 3100 | 61.4 ± 8.5 | 76.8 ± 19.3 | 77 ± 19.3 | > 200000 | > 200000 | 
3 | Cc1cc(C#N)cc(C)c1Oc1nc(Nc2ccc(C#N)cc2)nc(N)c1Br [ETR, etravirine, reference compound] | 27500 ± 5690 | 19,628 |  |  |  |  |  |  |  |  | EC50 [3]: 50 nM
4 | CCc1c(CC2CCCCC2)nc(SCc2n[nH]c(-c3ccc(Cl)c(Cl)c3)c2Cl)[nH]c1=O [I-32, 2-(((4-Chloro-5-(3,4-dichlorophenyl)-1H-pyrazol-3-yl)methyl)thio)-6-(cyclohexylmethyl)-5-ethyl-pyrimidin-4(3H)-one] | 190000 ± 13900 | 544 |  |  |  |  |  |  |  |  | 
5 | O=c1cc(CC2CCCCC2)nc(SCc2cc(-c3ccccc3)[nH]n2)[nH]1 [I-38, 6-(Cyclohexylmethyl)-2-(((5-phenyl-1H-pyrazol-3-yl)methyl)thio)pyrimidin-4(3H)-one] | 79100 ± 5340 | 16 |  |  |  |  |  |  |  |  | 
6 | CCc1c(CC2CCCCC2)nc(SCc2cc(-c3ccc(O)cc3)[nH]n2)[nH]c1=O [I-11, 6-(Cyclohexylmethyl)-5-ethyl-2-(((5-(4-hydroxyphenyl)-1H-pyrazol-3-yl)methyl)thio)pyrimidin-4(3H)-one] |  |  | 14.5 ± 0.1 | 48.5 ± 6.8 | 2770 ± 820 | 54.1 ± 23.1 | 46.2 ± 23.7 | 56.6 ± 2.4 | 46800 ± 5200 | 77100 ± 3680 | times more potent than NVP [4]: 5–14 times; AUC(0-inf) (in vivo; iv, 1 mg/kg): 2630 ng·h/mL; AUC(0-t) (in vivo; iv, 1 mg/kg): 2600 ng·h/mL; Cmax (in vivo; iv, 1 mg/kg): 7180 ng/mL; MRT inf (in vivo; iv, 1 mg/kg): 33.2 min; Vd (in vivo; iv, 1 mg/kg): 0.213 L/kg; clearance (in vivo; iv, 1 mg/kg): 6.4 mL/min/kg; half-life (in vivo; iv, 1 mg/kg): 72 min; bioavailability (in vivo; oral, 5 mg/kg): 10.4%; AUC(0-inf) (in vivo; po, 5 mg/kg): 1370 ng·h/mL; AUC(0-t) (in vivo; po, 5 mg/kg): 1300 ng·h/mL; CL/F (in vivo; po, 5 mg/kg): 63.8 mL/min/kg; Cmax (in vivo; po, 5 mg/kg): 1.54 µM and 654 ng/mL; MRT (in vivo; po, 5 mg/kg): 33.2 min; Tmax (in vivo; po, 5 mg/kg): 30 min; half-life (in vivo; po, 5 mg/kg): 150 min; times more potent than NVP (HIV-1IIIB): about 10 times; IC50 (recombinant HIV-1 RT): 1090 ± 590 nM
7 | CCc1c(CC2CCCCC2)nc(SCc2cc(-c3ccc(C)cc3)[nH]n2)[nH]c1=O [I-07, 6-(Cyclohexylmethyl)-5-ethyl-2-(((5-(p-tolyl)-1H-pyrazol-3-yl)methyl)thio)pyrimidin-4(3H)-one] | 91400 ± 1900 | 1748 |  |  |  |  |  |  |  |  | 
8 | Cc1cn([C@H]2C[C@H](N=[N+]=[N-])[C@@H](CO)O2)c(=O)[nH]c1=O [AZT, zidovudine, reference compound] | > 200000 | >22,472 |  |  |  |  |  |  |  |  | 
9 | CCc1c(CC2CCCCC2)nc(SCc2cc(-c3ccc(SC)cc3)[nH]n2)[nH]c1=O [I-12, 6-(Cyclohexylmethyl)-5-ethyl-2-(((5-(4-(methylthio)phenyl)-1H-pyrazol-3-yl)methyl)thio)pyrimidin-4(3H)-one] |  |  | 55.4 ± 11.2 | 193 ± 26.1 | 4870 ± 2710 | 219 ± 46.5 | 88.1 ± 17.9 | 165 | > 200000 | > 200000 | IC50 (recombinant HIV-1 RT): 2270 ± 120 nM
10 | CCc1c(CC2CCCCC2)nc(SCc2cc(-c3ccccc3)[nH]n2)[nH]c1=O [I-01, 6-(Cyclohexylmethyl)-5-ethyl-2-(((5-phenyl-1H-pyrazol-3-yl)methyl)thio)pyrimidin-4(3H)-one] |  |  |  |  |  |  |  |  |  |  | times more potent than NVP (HIV-1IIIB): about 10 times
